Reference: US6716978B2, “Therapeutically active compounds based on indazole bioisostere replacement of catechol in PDE4 inhibitors” (Pfizer Inc, priority 1997, dated 2004)

melting point [°C] | Structure (SMILES)
72 to 73 | CCc1nn(-c2ccc(F)cc2)c2cc(Br)ccc12 [Example 20, 6-Bromo-3-ethyl-1-(4-fluorophenyl)-1H-indazole]
214 to 216 | CCc1nn(-c2ccc(F)cc2)c2cc(C3=CCC(C(=O)O)CC3)ccc12 (centres unmarked) [Example 24, 4-(3-ethyl-1-(4-fluorophenyl)-1H-indazol-6-yl)-cyclohex-3-ene-carboxylic acid]
